Test results taken from US20250076312A1, “BIOMARKERS FOR THE TREATMENT OF INTERSTITIAL LUNG DISEASE” (Lung Therapeutics, LLC, priority 2021, published 2025).
Square brackets hold non-standard residues; d marks the D form. Ends that are not written are not given here.

Key:
Type in all cases: cell-based, human
pSMAD2/3 [1] = assay: SMAD2/3 phosphorylation in IPF fibroblasts; conditions: 10 μM, compared to 1% DMSO vehicle or DMEM controls, FIG. 7A
Experimental: IPF fibroblasts were treated with DMEM, 1% DMSO vehicle, CSP-7 (10 μM), Var55 (10 μM), pirfenidone (500 μM), or nintedanib (100 nM). SMAD2/3 phosphorylation was determined by Western blot 24 hours following treatment. […] IPF epithelial cells were treated with DMEM (control), Var55 (100 μM), nintedanib (100 nM), control peptide 1 (CP1, 100 μM), or control peptide 2 (CP2, 100 μM). SMAD2/3 phosphorylation was determined by Western blot 24 hours following treatment. Phosphorylated SMAD2/3 protein levels were determined by normalizing to total SMAD2/3 protein (FIG. 7A and FIG. 7B). Primary lung fibroblasts from IPF patients were treated with 1% DMSO vehicle, CSP-7 (10 μM), Var55 (10 μM), pirfenidone (500 μM), or nintedanib (100 nM). SMAD2/3 phosphorylation was measured in IPF fibroblasts by a multiplex assay or Western blot analysis and phosphorylated SMAD2/3 was normalized to total SMAD2/3 protein.

pSMAD2/3 [2] = assay: SMAD2/3 phosphorylation in IPF epithelial cells; conditions: 100 μM, compared to DMEM control, FIG. 7B
Experimental: IPF fibroblasts were treated with DMEM, 1% DMSO vehicle, CSP-7 (10 μM), Var55 (10 μM), pirfenidone (500 μM), or nintedanib (100 nM). SMAD2/3 phosphorylation was determined by Western blot 24 hours following treatment. […] IPF epithelial cells were treated with DMEM (control), Var55 (100 μM), nintedanib (100 nM), control peptide 1 (CP1, 100 μM), or control peptide 2 (CP2, 100 μM). SMAD2/3 phosphorylation was determined by Western blot 24 hours following treatment. Phosphorylated SMAD2/3 protein levels were determined by normalizing to total SMAD2/3 protein (FIG. 7A and FIG. 7B).
Additional experiments were performed to determine whether phosphorylation of SMAD2/3 could be used as a biomarker associated with Var55 treatment. Epithelial cells from IPF patients were treated with DMEM (control), Var55 (100 μM), nintedanib (100 nM), control peptide 1 (CP1, 100 μM), or control peptide 2 (CP2, 100 μM). SMAD2/3 phosphorylation was measured in […] by a multiplex assay or Western blot analysis and phosphorylated SMAD2/3 was normalized to total SMAD2/3 protein.

CXCL7 [3] = assay: CXCL7 ELISA in supernatant of IPF lung macrophages; conditions: FIG. 14
Description: (§1) Lung macrophages were either left untreated or treated with Var55. Each line represents a biological replicate of lung macrophages from an individual control subject (triangles) or an individual with IPF (circles).
(§2) Lung macrophages were collected from humans with IPF or healthy controls and cultured in vitro. Lung macrophages were either left untreated or treated with Var55. Following treatment, supernatants from the lung macrophage cultures were collected and analyzed for CXCL7 expression by ELISA.

CXCL7 [4] = assay: CXCL7 ELISA in supernatant of healthy control lung macrophages; conditions: FIG. 14
Description: as §1, §2

LDH activity = tested on: LDH activity
Experimental: PCLSs were either untreated or treated with CSP-7 (10 μM or 100 μM), control peptide (CP, 100 μM), TGFβ (2 ng/mL), or pirfenidone (Pirf, 500 μM) and nintedanib (Nin, 100 nM). LDH activity was measured in the supernatant of IPF PCLSs on day 2 (left panel) or day 4 (right panel) following treatment. […] LDH activity was measured in the supernatant of IPF PCLSs on day 2 (left panel) or day 4 (right panel) following treatment.
LDH activity was also examined in the supernatants of IPF PCLSs either untreated (UT) or treated with CSP-7 (10 μM or 100 μM), control peptide (CP, 100 μM), TGFβ (2 ng/mL), or pirfenidone (Pirf, 500 μM) and nintedanib (Nin, 100 nM). LDH activity was measured using an LDH assay (Sigma-Aldrich, Cat No MAK066).

Substance	phosphorylation of SMAD2/3 normalized to total SMAD2/3 (pSMAD2/3 [1])	phosphorylation of SMAD2/3 normalized to total SMAD2/3 (pSMAD2/3 [2])	CXCL7 in the supernatant (CXCL7 [3])	CXCL7 in the supernatant (CXCL7 [4])	LDH activity in PCLS supernatant (LDH activity)
Ac-aaEGKASFTTFTVTKGSaa-NH2 (Ac-[dA][dA]EGKASFTTFTVTKGS[dA][dA]-NH2; SMILES CC(=O)N[C@H](C)C(=O)N[C@H](C)C(=O)N[C@@H](CCC(=O)O)C(=O)NCC(=O)N[C@@H](CCCCN)C(=O)N[C@@H](C)C(=O)N[C@@H](CO)C(=O)N[C@@H](Cc1ccccc1)C(=O)N[C@H](C(=O)N[C@H](C(=O)N[C@@H](Cc1ccccc1)C(=O)N[C@H](C(=O)N[C@H](C(=O)N[C@H](C(=O)N[C@@H](CCCCN)C(=O)NCC(=O)N[C@@H](CO)C(=O)N[C@H](C)C(=O)N[C@H](C)C(N)=O)[C@@H](C)O)C(C)C)[C@@H](C)O)[C@@H](C)O)[C@@H](C)O) [Var55]	no difference	reduced phosphorylation	significant reduction	significant reduction	–
FTTFTVT [CSP-7, FTTFTVT]	–	–	–	–	slight reduction
